# According to patent publication US20240398811A1, “PRC2 INHIBITORS FOR USE IN TREATING BLOOD DISORDERS” (ORIC Pharmaceuticals, Inc., priority 2021, published 2024):
# Target: purified human, His-tagged PRC2 complex (Homo sapiens (Human), UniProt O75530)
# Assay: Hot Spot HMT assay, inhibition of PRC2 enzymatic activity
# Assay type: biochemical
# Settings: 10 nM PRC2 complex, 1 μM 3H-SAM, core histone H3, 10-point dose-response
# Source text: The assay uses purified human, His-tagged PRC2 complex, including N-terminal His-tagged EZH2 enzyme, N-terminal Flag-tagged embryonic ectoderm development protein (EED), N-terminal His-tagged suppressor of zeste 12 (SUZ12), N-terminal His-tagged AEBP2, and N-terminal His-tagged RbAp48. In this assay, the transfer of the tritiated methyl group from radiolabeled S-adenosyl methionine (SAM) to purified core histone protein by EZH2 is quantitated after filtration to determine the activity of the core PRC2 complex in the presence and absence of compound.
# The initial starting concentration for the serial dilutions of each compound was 1.0 μM. […] SAH (S-(5-adenosyl)-L-homocysteine) was used as a positive control for assay validation.
# An aliquot of each serial dilution of test compound was added to deep 384 well plate using Acoustic Technology instrument (Echo 550, LabCyte) containing reaction buffer (50 mM Tris-HCl (pH 8.)), 0.01% Brij35, 1 mM EDTA, 1 mM DTT, 1 mM PMSF and 1% DMSO), 10 nM purified PRC2 complex and 0.05 mg/ml core histone H3 in a 5 μl volume. The reaction was mixed gently and then pre-incubated for 20 min at 30° C. The enzymatic reaction was initiated by adding 1 μM S-Adenosyl-L-[methyl-^3H]methionine and incubated for 1 hr at 30° C. After 1 hr, the reaction product was detected using a filter binding method and the amount of tritiated H3 core histone was quantitated using a scintillation counter. […] Key: A=<100 nM; B=>100 nM-<500 nM; and C=>500 nM.
# purified human, His-tagged PRC2 complex, sequence (O75530 whole entry): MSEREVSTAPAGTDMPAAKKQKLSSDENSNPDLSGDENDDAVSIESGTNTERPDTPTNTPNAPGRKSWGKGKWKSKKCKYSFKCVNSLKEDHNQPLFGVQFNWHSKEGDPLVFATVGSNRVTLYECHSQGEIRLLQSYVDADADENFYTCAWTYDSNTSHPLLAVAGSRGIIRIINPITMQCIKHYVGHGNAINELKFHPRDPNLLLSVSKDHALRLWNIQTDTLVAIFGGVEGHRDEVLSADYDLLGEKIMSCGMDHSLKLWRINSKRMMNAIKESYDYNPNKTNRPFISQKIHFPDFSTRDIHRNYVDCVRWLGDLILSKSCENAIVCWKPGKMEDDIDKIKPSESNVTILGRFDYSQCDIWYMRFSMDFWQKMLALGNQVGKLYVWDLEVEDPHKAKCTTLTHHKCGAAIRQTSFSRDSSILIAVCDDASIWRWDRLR
# purified human, His-tagged PRC2 complex, sequence (Q15910 whole entry partner): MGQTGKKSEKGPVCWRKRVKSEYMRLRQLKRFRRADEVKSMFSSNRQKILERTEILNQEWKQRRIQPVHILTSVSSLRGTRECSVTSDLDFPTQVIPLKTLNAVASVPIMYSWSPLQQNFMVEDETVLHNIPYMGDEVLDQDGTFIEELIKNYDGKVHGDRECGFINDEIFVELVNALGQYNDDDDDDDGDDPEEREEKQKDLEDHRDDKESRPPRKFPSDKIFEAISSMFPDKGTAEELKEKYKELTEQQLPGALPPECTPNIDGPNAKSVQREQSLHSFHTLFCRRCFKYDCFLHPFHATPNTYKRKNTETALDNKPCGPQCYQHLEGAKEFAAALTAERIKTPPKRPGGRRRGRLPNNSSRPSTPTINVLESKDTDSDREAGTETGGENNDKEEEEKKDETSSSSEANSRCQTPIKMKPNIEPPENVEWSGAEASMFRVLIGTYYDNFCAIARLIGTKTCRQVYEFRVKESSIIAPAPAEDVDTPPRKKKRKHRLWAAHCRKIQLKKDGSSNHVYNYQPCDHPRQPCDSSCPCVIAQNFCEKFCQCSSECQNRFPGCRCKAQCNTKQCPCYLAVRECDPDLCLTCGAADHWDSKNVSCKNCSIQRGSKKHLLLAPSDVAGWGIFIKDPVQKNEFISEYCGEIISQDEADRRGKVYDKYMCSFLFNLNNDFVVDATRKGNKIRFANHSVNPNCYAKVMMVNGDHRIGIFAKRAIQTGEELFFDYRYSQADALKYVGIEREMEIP
# purified human, His-tagged PRC2 complex, sequence (Q15022 whole entry partner): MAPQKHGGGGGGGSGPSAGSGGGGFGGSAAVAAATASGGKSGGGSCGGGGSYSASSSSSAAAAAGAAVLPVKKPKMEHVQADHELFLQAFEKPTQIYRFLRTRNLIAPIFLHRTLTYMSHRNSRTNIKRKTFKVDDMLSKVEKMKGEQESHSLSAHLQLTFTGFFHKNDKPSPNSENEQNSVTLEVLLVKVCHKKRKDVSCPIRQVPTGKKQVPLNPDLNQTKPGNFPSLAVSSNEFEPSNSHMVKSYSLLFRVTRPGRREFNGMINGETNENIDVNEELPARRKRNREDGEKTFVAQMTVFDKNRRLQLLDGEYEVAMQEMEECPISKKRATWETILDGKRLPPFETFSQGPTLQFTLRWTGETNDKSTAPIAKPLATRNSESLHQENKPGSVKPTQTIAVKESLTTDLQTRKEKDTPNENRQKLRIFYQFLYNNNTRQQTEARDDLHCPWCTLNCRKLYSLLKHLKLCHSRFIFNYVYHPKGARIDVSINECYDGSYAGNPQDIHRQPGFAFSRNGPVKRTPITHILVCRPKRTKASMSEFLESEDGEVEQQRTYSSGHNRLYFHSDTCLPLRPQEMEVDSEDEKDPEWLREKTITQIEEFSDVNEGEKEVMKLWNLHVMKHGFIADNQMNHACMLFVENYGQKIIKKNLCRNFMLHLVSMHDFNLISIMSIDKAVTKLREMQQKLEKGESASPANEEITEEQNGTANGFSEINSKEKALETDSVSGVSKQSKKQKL
# purified human, His-tagged PRC2 complex, sequence (Q6ZN18 whole entry partner): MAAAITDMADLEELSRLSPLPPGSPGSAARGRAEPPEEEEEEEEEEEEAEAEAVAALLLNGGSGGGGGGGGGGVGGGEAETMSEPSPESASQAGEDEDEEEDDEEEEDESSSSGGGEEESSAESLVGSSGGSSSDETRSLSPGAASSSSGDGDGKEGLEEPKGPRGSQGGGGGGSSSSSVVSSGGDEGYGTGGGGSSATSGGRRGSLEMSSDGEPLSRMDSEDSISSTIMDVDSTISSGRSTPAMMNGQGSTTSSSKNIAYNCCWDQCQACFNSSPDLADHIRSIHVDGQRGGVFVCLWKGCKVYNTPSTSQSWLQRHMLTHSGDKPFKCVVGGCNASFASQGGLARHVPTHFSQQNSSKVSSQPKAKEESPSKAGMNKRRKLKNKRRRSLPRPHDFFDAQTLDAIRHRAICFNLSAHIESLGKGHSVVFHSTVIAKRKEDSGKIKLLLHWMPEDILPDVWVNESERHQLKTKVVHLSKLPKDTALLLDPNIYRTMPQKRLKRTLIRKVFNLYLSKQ
# purified human, His-tagged PRC2 complex, sequence (Q09028 whole entry partner): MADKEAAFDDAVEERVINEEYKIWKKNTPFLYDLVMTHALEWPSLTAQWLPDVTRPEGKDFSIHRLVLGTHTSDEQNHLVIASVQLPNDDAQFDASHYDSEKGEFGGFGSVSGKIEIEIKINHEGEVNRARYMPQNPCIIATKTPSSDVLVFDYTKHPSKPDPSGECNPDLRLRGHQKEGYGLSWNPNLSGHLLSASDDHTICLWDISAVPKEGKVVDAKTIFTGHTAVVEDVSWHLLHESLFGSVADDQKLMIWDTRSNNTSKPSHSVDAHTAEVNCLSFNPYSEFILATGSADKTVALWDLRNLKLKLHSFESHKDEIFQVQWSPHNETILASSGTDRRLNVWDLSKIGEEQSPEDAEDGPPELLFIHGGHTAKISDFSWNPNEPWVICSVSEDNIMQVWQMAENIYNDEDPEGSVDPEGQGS
row,Compound,IC50 [nM]
1,"COc1cc(C)c(-c2cnc(NCc3c(F)ccc4c3CCO4)n3cc(C(=O)O)nc23)cn1 [Example 6, 5-(((5-fluoro-2,3-dihydrobenzofuran-4-yl)methyl)amino)-8-(6-methoxy-4-methylpyridin-3-yl)imidazo[1,2-c]pyrimidine-2-carboxylic acid]",100 to 500
2,"Cc1nn(C(C)C)cc1-c1cnc(NCc2c(F)ccc3c2CCO3)n2cc(C(N)=O)nc12 [Example 13, 5-(((5-fluoro-2,3-dihydrobenzofuran-4-yl)methyl)amino)-8-(1-isopropyl-3-methyl-1H-pyrazol-4-yl)imidazo[1,2-c]pyrimidine-2-carboxamide]",< 100
3,"COc1cc(C)c(-c2cnc(NCc3c(F)ccc4c3CCO4)n3cc(C(N)=O)nc23)cn1 [Example 14, 5-(((5-fluoro-2,3-dihydrobenzofuran-4-yl)methyl)amino)-8-(6-methoxy-4-methylpyridin-3-yl)imidazo[1,2-c]pyrimidine-2-carboxamide]",100 to 500
4,"Cc1nc(C2CC2)ncc1-c1cnc(NCc2c(F)ccc3c2CCO3)n2cc(C(N)=O)nc12 [Example 15, 8-(2-cyclopropyl-4-methylpyrimidin-5-yl)-5-(((5-fluoro-2,3-dihydrobenzofuran-4-yl)methyl)amino)imidazo[1,2-c]pyrimidine-2-carboxamide]",100 to 500
5,"Cc1c(-c2cnc(NCc3c(F)ccc4c3CCO4)n3cc(C(N)=O)nc23)cnn1C(C)C [Example 16, 5-(((5-fluoro-2,3-dihydrobenzofuran-4-yl)methyl)amino)-8-(1-isopropyl-5-methyl-1H-pyrazol-4-yl)imidazo[1,2-c]pyrimidine-2-carboxamide]",< 100
6,"Cc1cn(-c2cnc(NCc3c(F)ccc4c3CCO4)n3cc(C(N)=O)nc23)cn1 [Example 17, 5-(((5-fluoro-2,3-dihydrobenzofuran-4-yl)methyl)amino)-8-(4-methyl-1H-imidazol-1-yl)imidazo[1,2-c]pyrimidine-2-carboxamide]",100 to 500
7,"Cc1cc(-c2cnc(NCc3c(F)ccc4occc34)n3cc(C(N)=O)nc23)n(C)n1 [Example 18, 8-(1,3-dimethyl-1H-pyrazol-5-yl)-5-(((5-fluorobenzofuran-4-yl)methyl)amino)imidazo[1,2-c]pyrimidine-2-carboxamide]",< 100
8,"Cc1cc(-c2cnc(NCc3cccc4c3CCO4)n3cc(C(N)=O)nc23)n(C)n1 [Example 19, 5-(((2,3-dihydrobenzofuran-4-yl)methyl)amino)-8-(1,3-dimethyl-1H-pyrazol-5-yl)imidazo[1,2-c]pyrimidine-2-carboxamide]",< 100
9,"CNC(=O)c1cn2c(NCc3c(F)ccc4c3CCO4)ncc(-c3cc(C)nn3C)c2n1 [Example 20, 8-(1,3-dimethyl-1H-pyrazol-5-yl)-5-(((5-fluoro-2,3-dihydrobenzofuran-4-yl)methyl)amino)-N-methylimidazo[1,2-c]pyrimidine-2-carboxamide]",< 100
10,"Cc1cc(-c2cnc(NCc3c(F)ccc4c3CCO4)n3cc(C(=O)N(C)C)nc23)n(C)n1 [Example 21, 8-(1,3-dimethyl-1H-pyrazol-5-yl)-5-(((5-fluoro-2,3-dihydrobenzofuran-4-yl)methyl)amino)-N,N-dimethylimidazo[1,2-c]pyrimidine-2-carboxamide]",> 500
11,"Cc1ncccc1-c1cnc(NCc2c(F)ccc3occc23)n2cc(C#N)nc12 [Example 22, 5-(((5-fluorobenzofuran-4-yl)methyl)amino)-8-(2-methylpyridin-3-yl)imidazo[1,2-c]pyrimidine-2-carbonitrile]",100 to 500
12,"Cc1nn(C(C)C)cc1-c1cnc(NCc2c(F)ccc3c2CCO3)n2cc(C#N)nc12 [Example 23, 5-(((5-fluoro-2,3-dihydrobenzofuran-4-yl)methyl)amino)-8-(1-isopropyl-3-methyl-1H-pyrazol-4-yl)imidazo[1,2-c]pyrimidine-2-carbonitrile]",100 to 500
13,"COc1cc(C)c(-c2cnc(NCc3c(F)ccc4c3CCO4)n3cc(C#N)nc23)cn1 [Example 24, 5-(((5-fluoro-2,3-dihydrobenzofuran-4-yl)methyl)amino)-8-(6-methoxy-4-methylpyridin-3-yl)imidazo[1,2-c]pyrimidine-2-carbonitrile]",100 to 500
14,"Cc1nc(C2CC2)ncc1-c1cnc(NCc2c(F)ccc3c2CCO3)n2cc(C#N)nc12 [Example 25, 8-(2-cyclopropyl-4-methylpyrimidin-5-yl)-5-(((5-fluoro-2,3-dihydrobenzofuran-4-yl)methyl)amino)imidazo[1,2-c]pyrimidine-2-carbonitrile]",100 to 500
15,"Cc1c(-c2cnc(NCc3c(F)ccc4c3CCO4)n3cc(C#N)nc23)cnn1C(C)C [Example 26, 5-(((5-fluoro-2,3-dihydrobenzofuran-4-yl)methyl)amino)-8-(1-isopropyl-5-methyl-1H-pyrazol-4-yl)imidazo[1,2-c]pyrimidine-2-carbonitrile]",100 to 500
16,"Cc1cc(-c2cnc(NCc3cccc4c3OCO4)n3cc(C#N)nc23)n(C)n1 [Example 27, 5-((benzo[d][1,3]dioxol-4-ylmethyl)amino)-8-(1,3-dimethyl-1H-pyrazol-5-yl)imidazo[1,2-c]pyrimidine-2-carbonitrile]",> 500
17,"Cc1cc(-c2cnc(NCc3c(Cl)ccc4c3CCO4)n3cc(C#N)nc23)n(C)n1 [Example 29, 5-(((5-chloro-2,3-dihydrobenzofuran-4-yl)methyl)amino)-8-(1,3-dimethyl-1H-pyrazol-5-yl)imidazo[1,2-c]pyrimidine-2-carbonitrile]",> 500
18,"Cc1cc(-c2cnc(NCc3cccc4c3CCO4)n3cc(C#N)nc23)n(C)n1 [Example 30, 5-(((2,3-dihydrobenzofuran-4-yl)methyl)amino)-8-(1,3-dimethyl-1H-pyrazol-5-yl)imidazo[1,2-c]pyrimidine-2-carbonitrile]",100 to 500

# Other lines, results leading:
row,IC50 [nM],Compound
1,< 100,"Cc1cc(C2CCCN2)ccc1-c1cnc(NCc2c(F)ccc3c2CCO3)n2cc(C#N)nc12 (single isomer, unassigned) [Example 213, 5-(((5-fluoro-2,3-dihydrobenzofuran-4-yl)methyl)amino)-8-(2-methyl-4-(pyrrolidin-2-yl)phenyl)imidazo[1,2-c]pyrimidine-2-carbonitrile]"
2,< 100,"Cc1cc(C2CCCN2)ccc1-c1cnc(NCc2c(F)ccc3c2CCO3)n2cc(C#N)nc12 (single isomer, unassigned) [Example 214, 5-(((5-fluoro-2,3-dihydrobenzofuran-4-yl)methyl)amino)-8-(2-methyl-4-(pyrrolidin-2-yl)phenyl)imidazo[1,2-c]pyrimidine-2-carbonitrile]"
3,< 100,"Cc1cn(-c2cnc(NCc3c(F)ccc4c3CCO4)n3cc(C(=O)O)nc23)cn1 [Example 4, 5-(((5-fluoro-2,3-dihydrobenzofuran-4-yl)methyl)amino)-8-(4-methyl-1H-imidazol-1-yl)imidazo[1,2-c]pyrimidine-2-carboxylic Acid]"
4,< 100,"Cc1nn(C(C)C)cc1-c1cnc(NCc2c(F)ccc3c2CCO3)n2cc(C(=O)O)nc12 [Example 5, 5-(((5-fluoro-2,3-dihydrobenzofuran-4-yl)methyl)amino)-8-(1-isopropyl-3-methyl-1H-pyrazol-4-yl)imidazo[1,2-c]pyrimidine-2-carboxylic acid]"
5,< 100,"Cc1nc(C2CC2)ncc1-c1cnc(NCc2c(F)ccc3c2CCO3)n2cc(C(=O)O)nc12 [Example 7, 8-(2-cyclopropyl-4-methylpyrimidin-5-yl)-5-(((5-fluoro-2,3-dihydrobenzofuran-4-yl)methyl)amino)imidazo[1,2-c]pyrimidine-2-carboxylic acid]"
6,< 100,"Cc1c(-c2cnc(NCc3c(F)ccc4c3CCO4)n3cc(C(=O)O)nc23)cnn1C(C)C [Example 8, 5-(((5-fluoro-2,3-dihydrobenzofuran-4-yl)methyl)amino)-8-(1-isopropyl-5-methyl-1H-pyrazol-4-yl)imidazo[1,2-c]pyrimidine-2-carboxylic acid]"
7,< 100,"Cc1cc(-c2cnc(NCc3c(F)ccc4occc34)n3cc(C(=O)O)nc23)n(C)n1 [Example 9, 8-(1,3-dimethyl-1H-pyrazol-5-yl)-5-(((5-fluorobenzofuran-4-yl)methyl)amino)imidazo[1,2-c]pyrimidine-2-carboxylic acid]"
8,< 100,"Cc1cc(-c2cnc(NCc3cccc4c3CCO4)n3cc(C(=O)O)nc23)n(C)n1 [Example 10, 5-(((2,3-dihydrobenzofuran-4-yl)methyl)amino)-8-(1,3-dimethyl-1H-pyrazol-5-yl)imidazo[1,2-c]pyrimidine-2-carboxylic acid]"
9,< 100,"Cc1cc(-c2cnc(NCc3c(F)ccc4c3CCO4)n3cc(C(N)=O)nc23)n(C)n1 [Example 11, 8-(1,3-dimethyl-1H-pyrazol-5-yl)-5-(((5-fluoro-2,3-dihydrobenzofuran-4-yl)methyl)amino)imidazo[1,2-c]pyrimidine-2-carboxamide]"
10,< 100,"Cc1ncccc1-c1cnc(NCc2c(F)ccc3occc23)n2cc(C(N)=O)nc12 [Example 12, 5-(((5-fluorobenzofuran-4-yl)methyl)amino)-8-(2-methylpyridin-3-yl)imidazo[1,2-c]pyrimidine-2-carboxamide]"
